Data taken from patent publication US20230002327A1, “SMALL-MOLECULE REGULATOR OF TLR8” (TSINGHUA UNIVERSITY, priority 2019, published 2023).

Tests used:
HEK-Blue hTLR8 cell line = experiment: Toxicity test of compounds (CCK-8 cell viability); type: cell-based, human; design: key to WST1 (normalized toxicity effect): viability relative to control well (background-subtracted OD), 1 = control
Protocol: In the 96-well plate used for the above-mentioned activity test of compounds (remaining 50 μL of culture medium containing cells), 5 μL of CellCountingKit-8 (CCK-8) Supermix was added to each well. Note that the introduction of air bubbles into the wells should be avoided since the air bubbles would interfere with the detection of OD value.
The culture plate was incubated in an incubator for 1 to 4 hours,
The edge of the 96-well plate could be tapped gently before reading the plate, and then the absorbance at 450 nm was measured by using the multi-mode plate reader.
Cell viability (%) was determined using the following formula: cell viability (%)=([Compound well ([…])−Background well (OD450)]/[Control well ([…])−Background well (OD450)])×100%. Among these, the background well was only added with the medium and CCK-8 reagent, the control well was only added with the medium, cells, R848 and CCK-8, and the compound wells were added with the medium, cells, R848, compounds in different concentrations, and CCK-8.

TLR8 [1] = molecular target: T1, TLR8 (Homo sapiens, UniProt Q9NR97); experiment: Inhibition of R848-induced signaling in HEK-Blue hTLR8 cell line (Quanti-Blue); type: cell-based
T1 construct: host or cells: HEK-Blue hTLR8 (HEK293-derived SEAP reporter cells)
T1 sequence (Q9NR97 27-1041): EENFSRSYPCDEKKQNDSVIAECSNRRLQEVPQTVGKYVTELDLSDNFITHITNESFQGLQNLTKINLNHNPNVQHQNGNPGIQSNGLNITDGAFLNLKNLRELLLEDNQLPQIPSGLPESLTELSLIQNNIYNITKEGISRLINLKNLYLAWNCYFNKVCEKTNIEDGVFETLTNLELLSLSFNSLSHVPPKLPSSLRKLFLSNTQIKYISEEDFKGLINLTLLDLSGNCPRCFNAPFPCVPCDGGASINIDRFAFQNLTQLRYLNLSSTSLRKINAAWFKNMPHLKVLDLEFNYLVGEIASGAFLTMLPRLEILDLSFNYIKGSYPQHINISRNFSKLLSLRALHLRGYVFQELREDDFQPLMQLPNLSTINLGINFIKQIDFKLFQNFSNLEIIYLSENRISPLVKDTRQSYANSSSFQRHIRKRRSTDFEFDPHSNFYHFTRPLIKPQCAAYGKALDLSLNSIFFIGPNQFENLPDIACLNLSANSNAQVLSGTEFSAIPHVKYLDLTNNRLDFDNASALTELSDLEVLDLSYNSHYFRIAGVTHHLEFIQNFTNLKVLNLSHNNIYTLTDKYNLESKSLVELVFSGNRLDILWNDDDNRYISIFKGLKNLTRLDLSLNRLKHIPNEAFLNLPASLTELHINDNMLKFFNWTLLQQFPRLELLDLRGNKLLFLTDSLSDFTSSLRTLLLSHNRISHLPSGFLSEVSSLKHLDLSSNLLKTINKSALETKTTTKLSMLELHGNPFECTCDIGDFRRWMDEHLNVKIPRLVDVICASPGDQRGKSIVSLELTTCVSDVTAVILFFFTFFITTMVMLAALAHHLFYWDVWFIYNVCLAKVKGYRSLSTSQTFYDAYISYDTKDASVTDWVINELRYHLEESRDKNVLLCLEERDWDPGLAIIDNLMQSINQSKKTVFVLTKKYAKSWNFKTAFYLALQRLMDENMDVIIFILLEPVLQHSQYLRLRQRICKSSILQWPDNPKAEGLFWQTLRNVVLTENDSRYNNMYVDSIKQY
In short: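 HEK-Blue hTLR8 cells, 45,000 per well, cultured 24 h then switched to serum-free DMEM; after a further 24 h, supernatant SEAP read with Quanti-Blue at 620 nm. Inhibition computed relative to R848 and untreated-cell OD620; IC50 from curve fit.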

TLR8 [2] = molecular target: T1, TLR8; experiment: Specificity test in HEK-Blue TLR cell lines: TLR8; type: cell-based
Protocol: The selectivity of compounds for receptors in TLR family was tested in HEK-Blue cells overexpressing various TLRX (x=1 to 9) respectively. The steps of this test method were the same as those mentioned above in “Activity Test of Compounds”, except that the ligands corresponding to different TLRs were used to activate the downstream signaling in the corresponding cells. Among these, ploy (I:C) (20 μg/mL), LPS (40 ng/mL), Pam3CSK4 (100 ng/mL), Pam2CSK4 (100 ng/mL), flagellin (200 ng/mL), R848 (1 μg/mL) and ODN2006 (0.5 μM) were used to selectively activate HEK-Blue hTLR3-, hTLR4-, hTLR1/2-, hTLR2/6-, hTLR5-, hTLR7- and hTLR9-overexpressing cells, respectively.

TLR8 [3] = molecular target: T1, TLR8; experiment: ORN06-induced signaling in HEK-Blue hTLR8 cell line; type: cell-based
Protocol: HEK Blue hTLR8 cells or HEK Blue hTLR7 cells were cultured in DMEM medium supplemented with 10% fetal bovine serum, penicillin (100 U/mL) and streptomycin ([…]). Thereafter, cells were seeded in 96-well plate (45,000 cells per well), and were cultured for 24 hours in a humidified incubator (37° C., 5% CO2).
After 24 hours, the supernatant and suspending cells were aspirated and replaced with fresh serum-free DMEM. Cells were treated with 1 μg/mL of R848 (agonist of TLR7/8) or 5 μg/mL of ssRNA40/LyoVec or 5 μg/mL of ORN06/LyoVec (InvivoGen) and compounds with specified concentrations, and were placed in a humidified incubator (37° C., 5% CO2) for co-culture.
After 24 hours, 50 μL of the medium was aspirated from each well and then added to a new 96-well plate, followed by the addition of 50 μL of Quanti-Blue in each well and the incubation at 37° C. in darkness. Changes in color would occur in the […] within 60 minutes, and the absorbance was measured at 620 nm by using the multi-mode plate reader Vrioskan Flash. Inhibition rate (%)=[R848 (OD620)−Compound (OD620)]/[R848 (OD620)−Control (OD620)]×100%. Among these, the control group was only added with the same amount of cells. Finally, the software Prism 6.0 was utilized to plot a graph and calculate IC50 values. […]

[4] = HEK-Blue hTLR8 cell line (FIG. 1, FIG. 10)
[5] = HEK-Blue hTLR8 cell line, at a concentration of 100 μM (FIG. 12)

Structure (SMILES)	influence on cell viability (HEK-Blue hTLR8 cell line; HEK-Blue hTLR8 cells, under the test conditions (FIG. 10))	WST1 (normalized toxicity effect) (HEK-Blue hTLR8 cell line; normalized cell viability, HEK-Blue cell lines)	inhibitory effect on R848-induced signaling (TLR8 [1]; [4])	inhibitory effect on R848-induced signaling (TLR8 [1]; [5])	Remaining R848-induced TLR8 signaling (normalized activity; ligand+DMSO = 1, untreated = 0) (TLR8 [1]; HEK-Blue hTLR8 cell line, normalized, ligand+DMSO = 100% activity, untreated = 0%)	specific inhibitory effect on TLR8 signaling pathway (TLR8 [2]; at a concentration of 100 μM (FIG. 11))	synergistic activating effect on ORN06-induced signaling (TLR8 [3]; [5])	toxicity in HEK-Blue hTLR8 cell line (HEK-Blue hTLR8 cell line; even at a concentration of 100 μM (FIG. 2))	IC50 (TLR8 [1]; R848-induced signaling, HEK-Blue hTLR8 cell line, value ± standard deviation, at least triplicate) [nM]	specific inhibitory effect on HEK-Blue hTLR8 cell line (TLR8 [2]; at a concentration of 20 μM (FIG. 3))	inhibitory effect on ORN06-induced signaling (TLR8 [3]; HEK-Blue hTLR8 cell line (FIG. 1))
CCOCc1nc(I)c(-c2ccccc2)n1CC(C)(C)O [Compound 53, 1-[2-(ethoxymethyl)-4-iodo-5-phenyl-1H-imidazole-1-yl]-2-methylpropan-2-ol]	no influence on cell viability	0.9 ± 0.2	significant inhibitory effect	significant inhibitory effect	0.1 ± 0.1	specific inhibitory effect	synergistic activating effect	–	–	–	–
CSc1nnc(CCCO)n1-c1cc(C)c(C)c(C)c1 [Compound 24, 3-(5-(methylthio)-4-(3,4,5-trimethylphenyl)-4H-1,2,4-triazole-3-yl)propan-1-ol]	–	–	excellent inhibitory effect	–	–	–	–	did not cause significant toxicity	30 ± 2	specific inhibitory effect	excellent inhibitory effect
